Legend:
[1] = target: T1, 1EVQ (thermostable scaffold) (Alicyclobacillus acidocaldarius, UniProt Q7SIG1); assay: relative MHET hydrolysis activity; assay type: biochemical; conditions: 4.8 mM MHET, 0.25 μM enzyme, 50 mM sodium phosphate, pH 7.5, 50 °C, 10 min
T1 construct: synthesized codon-optimized gene, pET-22b(+), E. coli BL21(DE3); named only by PDB code

[2] = tested on: T2, KL36F (fusion of KL-MHETase and FAST-PETase); assay: initial rates, TPA by HPLC, Michaelis-Menten fit; assay type: biochemical, Geobacillus stearothermophilus; conditions: 50 mM sodium phosphate, pH 7.5, 50 °C
T2 construct: gene est; order judged from name; FAST-PETase moiety also hydrolyses MHET weakly; with Poly(ethylene terephthalate) hydrolase

O=C(O)c1ccc(C(=O)OCCO)cc1 [MHET]
relative activity [1]: 1EVQ and 1TQH, exhibited apparent activity with regard to MHET hydrolysis
Km [2]: 4.52 ± 0.67 mM

— article PMC10636135, “Computational design of highly efficient thermostable MHET hydrolases and dual enzyme system for PET recycling” (Communications Biology, 2023)
